Source: patent US4415574A, “Soluble N2 substituted derivatives of 2,4-diamino 5-benzyl pyrimidine, process for their preparation and medicaments containing them” (S. A. Panmedica, priority 1981, dated 1983)
Where two headings read alike, the source gives them in different places.

Tests used:
in vivo = details: mouse
COLI [1] = assay: Inhibiting minimum concentration (I.M.C.), activity relative to trimethoprime, OXOIDE COLI MEDIUM 4; type: cell-based; details: for % activity with respect to the base: ratio of I.M.C. to trimethoprime; for % activity with respect to the base corrected by molecular weight: ratio to trimethoprime
Protocol: (§1) The antibacterial activity of the derivatives according to the invention were tested in vitro by determining the inhibiting minimum concentrations (I.M.C.) on different germs.

COLI [2] = assay: Inhibiting minimum concentration (I.M.C.), activity relative to trimethoprime, MULLER HINTON COLI MEDIUM 4; type: cell-based; details: for % activity with respect to the base: ratio of I.M.C. to trimethoprime; for % activity to the base corrected by molecular weight: ratio to trimethoprime
Protocol: as §1

BACIL PUMILUS = assay: Inhibiting minimum concentration (I.M.C.), activity relative to trimethoprime, MULLER HINTON BACIL PUMILUS MEDIUM; type: cell-based; details: for % activity with respect to the base: ratio of I.M.C. to trimethoprime; for % activity with respect to the base corrected by molecular weight: ratio to trimethoprime
Protocol: as §1

bacteria = details: Gram-positive cocci, Gram-negative cocci and Gram negative bacilli; cited from earlier work
dehydrofolate-reductase = details: cited from earlier work
[3] = Solubility in water / pH of aqueous solutions; type: physicochemical; details: pH value

| pH at which the derivative is insoluble [3] | Structure (SMILES) | LD50 (in vivo; iv, read-out: LD 50 I.V.) | LD50 (in vivo; po, read-out: LD 50 by mouth) | % activity with respect to the base (COLI [1]) | % activity with respect to the base corrected by molecular weight (COLI [1]) | % activity with respect to the base (COLI [2]) | % activity to the base corrected by molecular weight (COLI [2]) | % activity with respect to the base (BACIL PUMILUS) | % activity with respect to the base corrected by molecular weight (BACIL PUMILUS) | antibacterial activity (words, prior art) (bacteria) | interference with dehydrofolate-reductase (words, prior art) (dehydrofolate-reductase) |
| --- | --- | --- | --- | --- | --- | --- | --- | --- | --- | --- | --- |
|  | COc1ccccc1C(Nc1ncc(Cc2cc(OC)c(OC)c(OC)c2)c(N)n1)S(=O)(=O)O (stereo not shown) [Example 15, N2 (2-Methoxy Phenyl) Methane Sulfonic Acid of 2,4-Diamino 5-(3,4,5-Trimethoxy Benzyl) Pyrimidine] | 1000 mg/kg | > 12000 mg/kg | 64% | 107% | 47% | 73% | 60% | 106% |  |  |
|  | CCOc1cc(C(Nc2ncc(Cc3cc(OC)c(OC)c(OC)c3)c(N)n2)S(=O)(=O)O)ccc1O (stereo not shown) [Example 24f, N2 (3-Ethoxy 4-Hydroxy) Phenyl Methane Sulfonic Acid of 5-(3,4,5-Trimethoxy Benzyl) 2,4-Diamino Pyrimidine] | 1000 mg/kg | > 12000 mg/kg | 27.4% | 63% | 40.3% | 92% | 31.8% | 73% |  |  |
|  | COc1cc(Cc2cnc(NC(c3cc(OC)c(OC)c(OC)c3)S(=O)(=O)O)nc2N)cc(OC)c1OC (stereo not shown) [Example 17, N2 (3,4,5-Trimethoxy Phenyl) Methane Sulfonic Acid 2,4-Diamino 5-(3,4,5-Trimethoxy Benzyl) Pyrimidine] |  |  | 34.8% | 68% | 24.3% | 48% | 42.7% | 84% |  |  |
|  | COc1cc(Cc2cnc(NC(c3cccc(Cl)c3)S(=O)(=O)O)nc2N)cc(OC)c1OC (stereo not shown) [Example 10, N2 (3-Chloro Phenyl) Methane Sulfonic Acid of 2,4-Diamino 5-(3,4,5-Trimethoxy Benzyl) Pyrimidine] |  |  | 14.1% | 25% | 11.6% | 20% | 10.4% | 18% |  |  |
|  | CCOc1cc(C(Nc2ncc(Cc3cc(OC)c(OC)c(OC)c3)c(N)n2)S(=O)(=O)O)ccc1O (stereo not shown) [Example 24d, N2 (3-Ethoxy 4-Hydroxy) Phenyl Methane Sulfonic Acid of 5-(3,4,5-Trimethoxy Benzyl) 2,4-Diamino Pyrimidine] |  |  | 13.1% | 26% | 23.2% | 46% | 37.0% | 74% |  |  |
|  | COc1cc(Cc2cnc(NC(c3ccccc3O)S(=O)(=O)O)nc2N)cc(OC)c1OC (stereo not shown) [Example 25e, N2 (2-HYDROXY) PHENYL METHANE SULFONIC ACID OF 5-(3,4,5-TRIMETHOXY BENZYL) 2,4-DIAMINO PYRIMIDINE] |  |  | 36.6% | 74% | 45.8% | 93% | 75.8% | 154% |  |  |
|  | COc1cc(Cc2cnc(N)nc2N)cc(OC)c1OC [Trimethoprime, 5-(3,4,5-trimethoxybenzyl) 2,4diamino pyrimidine] |  |  |  |  |  |  |  |  | very wide-spectrum antibacterial agent | interferes with dehydrofolate-reductase |
| 5.6 | COc1cc(Cc2cnc(NC(c3ccccn3)S(=O)(=O)O)nc2N)cc(OC)c1OC (stereo not shown) [Example 22, N2 2-Pyridyl Methane Sulfonic Acid of 5-(3,4,5-Trimethoxy Benzyl) 2,4-Diamino Pyrimidine] |  |  |  |  |  |  |  |  |  |  |
|  | CCOc1cc(C(Nc2ncc(Cc3cc(OC)c(OC)c(OC)c3)c(N)n2)S(=O)(=O)O)ccc1O (stereo not shown) [Example 24b, N2 (3-Ethoxy 4-Hydroxy) Phenyl Methane Sulfonic Acid of 5-(3,4,5-Trimethoxy Benzyl) 2,4-Diamino Pyrimidine] |  |  | 48.7% | 93% | 43.9% | 84% | 42.2% | 79% |  |  |
|  | COc1cc(Cc2cnc(NC(c3cccc([N+](=O)[O-])c3)S(=O)(=O)O)nc2N)cc(OC)c1OC (stereo not shown) [Example 13, N2 (3-Nitro Phenyl) Methane Sulfonic Acid of 2,4-Diamino 5-(3,4,5-Trimethoxy Benzyl) Pyrimidine] |  |  | 32.5% | 59% | 17.2% | 31% | 23.2% | 42% |  |  |
|  | COc1cc(Cc2cnc(NC(c3ccc([N+](=O)[O-])cc3)S(=O)(=O)O)nc2N)cc(OC)c1OC (stereo not shown) [Example 12, N2 (4-Nitro Phenyl) Methane Sulfonic Acid of 2,4-Diamino 5-(3,4,5-Trimethoxy Benzyl) Pyrimidine] |  |  | 11.7% | 21% | 18.1% | 32% | 11.9% | 22% |  |  |
|  | COc1cc(Cc2cnc(NC(c3cccs3)S(=O)(=O)O)nc2N)cc(OC)c1OC (stereo not shown) [Example 20, N2 (2-Thienyl) Methane Sulfonic Acid of 2,4-Diamino 5-(3,4,5-Trimethoxy Benzyl) Pyrimidine] |  |  | 62.6% | 105% | 73.5% | 123% | 83.4% | 140% |  |  |
|  | COc1cc(Cc2cnc(NC(c3ccco3)S(=O)(=O)O)nc2N)cc(OC)c1OC (stereo not shown) [Example 19] | 900 mg/kg | > 12500 mg/kg | 58.4% | 95% | 69.4% | 112% | 49.5% | 80% |  |  |
|  | CCCC(Nc1ncc(Cc2cc(OC)c(OC)c(OC)c2)c(N)n1)S(=O)(=O)O (stereo not shown) [Example 3, N2 Butane Sulfonic Acid of 2,4-Diamino 5-(3,4,5-Trimethoxy Benzyl) Pyrimidine] |  |  | 18.35% | 28% | 4.55% | 10.8% | 2.9% | 6.8% |  |  |
|  | COc1cc(C(Nc2ncc(Cc3cc(OC)c(OC)c(OC)c3)c(N)n2)S(=O)(=O)O)ccc1O (stereo not shown) [Example 21, N2 (4-Hydroxy 3-Methoxy) Phenyl Methane Sulfonic Acid of 2,4-Diamino 5-(3,4,5-Trimethoxy Benzyl) Pyrimidine] |  |  | 49.8% | 90% | 43.3% | 79% | 34.6% | 63% |  |  |
|  | COc1cc(Cc2cnc(NC(c3ccc4c(c3)OCO4)S(=O)(=O)O)nc2N)cc(OC)c1OC (stereo not shown) [Example 18, N2 (3,4-Dioxy Methylene Phenyl) Methane Sulfonic Acid of 2,4-Diamino 5-(3,4,5-Trimethoxy Benzyl) Pyrimidine] |  | > 12000 mg/kg | 27% | 48% | 14.85% | 26% | 21.4% | 38% |  |  |
|  | COc1cc(Cc2cnc(NC(C)S(=O)(=O)O)nc2N)cc(OC)c1OC (stereo not shown) [Example 2, N2 Ethane Sulfonic acid of 2,4-Diamino 5-(3,4,5-Trimethoxy Benzyl) Pyrimidine] |  |  | 4% | 5.8% | 4.3% | 6.2% | 2.8% | 4% |  |  |
